Several values for one entry are separate records, joined by “and”; a condition that tells them apart may be missing. Equal entries are not always repeated. Structures can show the parent of a compound that is named as a salt. Where two headings read alike, the source gives them in different places.

The values below come from US6413974B1, “6,9,-disubstituted 2-[trans-(4-aminocyclohexyl) amino] purines” (Aventis Pharmaceuticals Inc., priority 1998, dated 2002).

Experiment [1] deals with PC-3. Nature of the experiment: In vitro tumor cell proliferation, PC-3. The class given is cell-based, human. The settings on record: read-out: In vitro Tumor Cell Proliferation (IC50, μM) Prostate PC-3. The method, boiled down: (§1)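 Viable (trypan blue-excluding) cells plated and left overnight at 37° C, then exposed to drug for 3 days, refed with fresh drug-containing medium for 4 more days. TCA-fixed cells stained with 0.4% sulforhodamine B; alternatively, CyQUANT read after 3 days of drug and freezing at −80° C.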

Experiment [2] relates to MDA-MB-231. Description: In vitro tumor cell proliferation, MDA-MB-231. The class given is cell-based, human. The settings on record: read-out: In vitro Tumor Cell Proliferation (IC50, μM) Breast MDA-MB-231. The method, boiled down:
as §1

In experiment [3] the test system is HT-29. Description: In vitro tumor cell proliferation, HT-29. To be noted: read-out: In vitro Tumor Cell Proliferation (IC50, μM) Colon HT-29 (converted). The class given is cell-based, human. The method, boiled down:
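HT-29 human colon adenocarcinoma cells plated overnight at 37° C., then exposed to drug for 3 days, medium with fresh drug replaced for a further 4 days. Cells fixed with 10% TCA and stained with 0.4% sulforhodamine B; alternatively, CyQUANT read after 3 days of drug exposure.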

Experiment [4] deals with DMS-114. Description: In vitro tumor cell proliferation, DMS-114. The class given is cell-based, human. To be noted: read-out: In vitro Tumor Cell Proliferation (IC50, μM) Lung DMS-114. Put shortly: as §1
Experiment [5] concerns the target T1, cdk2/cyclin E (Homo sapiens, UniProt P24941).
T1 construct: made in house; host or cells: insect cells (baculovirus co-infection)
Description: Cyclin-Dependent Kinase 2 Assay (cdk-2 inhibition). The class given is biochemical. To be noted: GST-Rb substrate, 30 min at 30° C. Put shortly:
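GST-Rb bound to glutathione-Sepharose beads (0.5 μg/well) as substrate in 50 mM HEPES pH 7.5, 10 mM MgCl2, 1 mM EGTA. Recombinant cdk2/cyclin E at 0.1 μg per 100 μl, 30 min at 30 °C. Reaction stopped by filtration, TNEN washes, scintillation counting.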

The target of experiment [6] is T2, cdk4/cyclin D1 (Homo sapiens, UniProt P11802).
T2 construct: made in house; host or cells: Sf9 insect cells (Bac-to-Bac baculovirus, pFastBac)
T2 sequence (P11802 whole entry): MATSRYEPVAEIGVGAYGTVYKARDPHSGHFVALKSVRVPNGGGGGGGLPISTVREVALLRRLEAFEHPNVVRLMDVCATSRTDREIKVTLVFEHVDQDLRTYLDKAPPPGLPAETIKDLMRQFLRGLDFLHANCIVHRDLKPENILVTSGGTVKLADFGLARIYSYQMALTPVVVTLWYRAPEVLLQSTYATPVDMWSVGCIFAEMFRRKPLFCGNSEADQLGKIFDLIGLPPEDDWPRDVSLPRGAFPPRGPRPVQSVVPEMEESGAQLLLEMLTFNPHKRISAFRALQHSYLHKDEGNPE
T2 sequence (P24385 whole entry partner): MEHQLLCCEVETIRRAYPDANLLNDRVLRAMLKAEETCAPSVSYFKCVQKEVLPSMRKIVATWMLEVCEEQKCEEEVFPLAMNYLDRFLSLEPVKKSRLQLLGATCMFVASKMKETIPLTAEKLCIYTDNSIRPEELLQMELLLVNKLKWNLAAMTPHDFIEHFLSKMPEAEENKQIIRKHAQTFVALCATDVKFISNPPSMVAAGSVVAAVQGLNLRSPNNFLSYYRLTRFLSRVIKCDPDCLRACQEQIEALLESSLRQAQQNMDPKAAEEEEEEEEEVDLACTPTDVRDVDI
Description: Cyclin-dependent kinase 4 Assay. The class given is biochemical. To be noted: cdk4/cyclin D1, GST-Rb substrate, 10 μM ATP, 30 min at 37° C.; read-out: CDK4 Inhibition IC50. The method, boiled down: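 Insect-cell lysate of coexpressed human cdk4/cyclin D1 (0.1 μg) phosphorylated bead-bound GST-Rb (0.5 μg) in 50 mM HEPES pH 7.5, 10 mM MgCl2, 1 mM EGTA for 30 min at 37 °C. Filters were washed with TNEN and scintillation-counted; IC50 values derived.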

For experiment [7], the system named is DU 145. Description: In vitro tumor cell proliferation, DU 145. The class given is cell-based, human. To be noted: read-out: In vitro Tumor Cell Proliferation (IC50, μM) Prostate DUI45. The method, boiled down: as §1
In experiment [8] the test system is HCT-15. Description: In vitro tumor cell proliferation, HCT-15. To be noted: read-out: In vitro Tumor Cell Proliferation (IC50, μM) Colon HCT-15. The class given is cell-based, human. The procedure:
The proliferation of tumor cells was measured using a sulforhodamine B assay as described in Skehan, P., et al., J. Natl. Cancer Inst. […] Tumor cells were harvested with trypsin-EDTA, cells that excluded trypan blue were counted, added to 96-well plates and incubated overnight at 37° C. Drug was added to the wells following dilution in culture medium. Three days later, the medium was removed and replenished with medium containing fresh drug and incubated an additional 4 days. The cells were then fixed with 0.1 ml 10% trichloroacetic acid for 60 min at 4° C. The plates were rinsed five times with tap water, air-dried and stained for 30 min with 0.4% sulforhodamine B in 1% acetic acid and air-dried.
Alternatively, the CyQUANT cell proliferation assay was used to quantify tumor cell proliferation. Tumor cells were harvested with trypsin-EDTA, cells that excluded trypan blue were counted, added to 96-well plates and incubated overnight at 37° C. Drug was added to the wells following dilution in culture medium. Three days later the medium was removed and the plates frozen at −80° C. for at least 30 minutes.

The subject of experiment [9] is A549. Description: In vitro tumor cell proliferation, A549. The class given is cell-based, human. To be noted: read-out: In vitro Tumor Cell Proliferation (IC50, μM) Lung A549. The method, boiled down: as §1
Experiment [10] concerns Colo-205. Nature of the experiment: In vitro tumor cell proliferation, Colo-205. The class given is cell-based, human. To be noted: read-out: In vitro Tumor Cell Proliferation (IC50, μM) Colon Colo-205. Put shortly:
as §1

In experiment [11] the test system is MDA-MB-435. Nature of the experiment: In vitro tumor cell proliferation, MDA-MB-435. The class given is cell-based, human. The settings on record: read-out: In vitro Tumor Cell Proliferation (IC50, μM) Breast MDA-MB-435. Put shortly:
as §1

[12] abbreviates: values without *, dihydrochloride.
Setting [13] is: Homo sapiens, MDA-MB-231, values without *.
Setting [14] is: Homo sapiens, HT-29, values without *.
The mark [15] stands for this setting: Homo sapiens, DMS-114, values without *.
[16] abbreviates: Homo sapiens, DU-145, values without *.
The mark [17] stands for this setting: Homo sapiens, HCT-15, values without *.
Setting [18] is: Homo sapiens, A549, values without *.
Setting [19] is: Homo sapiens, PC-3, values marked * (mark not explained).
Setting [20] is: values marked * (mark not explained), dihydrochloride.
The mark [21] stands for this setting: Homo sapiens, MDA-MB-231, values marked * (mark not explained).
Where [22] appears, read: Homo sapiens, HT-29, values marked * (mark not explained).
Where [23] appears, read: Homo sapiens, COLO 205, values marked * (mark not explained).
The mark [24] stands for this setting: Homo sapiens, DMS-114, values marked * (mark not explained).
[25] abbreviates: Homo sapiens, A549, values marked * (mark not explained).
The mark [26] stands for this setting: Homo sapiens, MDA-MB-435, values marked * (mark not explained).
Where [27] appears, read: Homo sapiens, DU-145, values marked * (mark not explained).

For the compound `Cc1cccc(CNc2nc(N[C@H]3CC[C@H](N)CC3)nc3c2ncn3C2CCCC2)c1` [Example 11, 2-[Trans-(4-aminocyclohexyl)amino]-6-[(3-methylbenzyl)amino]-9-cyclopentylpurine dihydrochloride], the IC50 in experiment [1] (Homo sapiens, PC-3, values without *) is 5.8 µM; in experiment [1] (setting [12]), 4.2 µM; in [2] (setting [13]), 7.4 µM; in experiment [3] (setting [14]), 8.2 µM; in experiment [3] (setting [12]), 11 µM; in experiment [4] (setting [15]), 4.5 µM. Besides, the IC50 in experiment [4] (setting [12]) was 7.1 µM; in [5], 150 nM; in experiment [6], 11000 nM and 7400 nM; in [7] (setting [16]), 4.8 µM; in [7] (setting [12]), 8 µM; in [8] (setting [17]), 11 µM.

On to `N[C@H]1CC[C@H](Nc2nc(NCC3CCCCC3)c3ncn(C4CCCC4)c3n2)CC1` [Example 22, 2-[Trans-(4-aminocyclohexyl)amino]-6-[(cyclohexyl)methylamino]-9-cyclopentylpurine dihydrochloride], for which the IC50 in experiment [2] (setting [13]) is 8.6 µM; in experiment [3] (setting [14]), 16 µM; in [3] (setting [12]), 12 µM; in experiment [4] (setting [15]) it was 9 µM; in experiment [9] (setting [18]), 8 µM; in experiment [5], 520 nM. Further, the IC50 was 24000 nM and 63000 nM in experiment [6]; 7.5 µM in experiment [7] (setting [16]); 11 µM in experiment [7] (setting [12]); 17 µM in experiment [8] (setting [17]); 15 µM in [8] (setting [12]).

Regarding `N[C@H]1CC[C@H](Nc2nc(NCc3cccc(Cl)c3)c3ncn(C4CCCC4)c3n2)CC1` [Example 29, 2-[Trans-(4-aminocyclohexyl)amino]-6-[(3-chlorobenzyl)amino]-9-cyclopentylpurine dihydrochloride], the IC50 was 1.1 µM in experiment [2] (setting [13]); 1.6 µM in [2] (setting [12]); 2.4 µM in experiment [3] (setting [14]); 1.5 µM in experiment [3] (setting [12]); 0.52 µM in [4] (setting [15]); 0.63 µM in experiment [4] (setting [12]). The IC50 in experiment [9] (setting [18]) amounted to 0.92 µM; in [9] (setting [12]), 1.3 µM; in [5] it was 32 nM; in [6] it was 530 nM; in [7] (setting [16]) it was 0.8 µM; in experiment [7] (setting [12]), 0.92 µM. Besides, the IC50 amounted to 3.8 µM in experiment [8] (setting [17]) and 2.9 µM in [8] (setting [12]).

Take `N[C@H]1CC[C@H](Nc2nc(NCC3CC3)c3ncn(C4CCCC4)c3n2)CC1` [Example 34, 2-[Trans-(4-aminocyclohexyl)amino]-6-[(cyclopropyl)methylamino]-9-cyclopentylpurine dihydrochloride]: the IC50 in [2] (setting [13]) is 1.2 µM; in experiment [2] (setting [12]), 2.2 µM; in experiment [3] (setting [14]) it was 1.3 µM; in [3] (setting [12]) it was 2.6 µM; in experiment [4] (setting [15]) it was 1.5 µM; in experiment [4] (setting [12]), 1.4 µM. Further, the IC50 in experiment [9] (setting [18]) was 1.9 µM; in experiment [9] (setting [12]), 1.2 µM; in experiment [5], 24 nM; in experiment [6] it was 930 nM and 640 nM; in [7] (setting [16]), 0.97 µM; in experiment [7] (setting [12]) it was 1.7 µM. Moreover, the IC50 in experiment [8] (setting [17]) was 3.3 µM; in experiment [8] (setting [12]), 3.4 µM.

As for `CCCNc1nc(N[C@H]2CC[C@H](N)CC2)nc2c1ncn2C1CCCC1` [Example 44, 2-[Trans-(4-aminocyclohexyl)amino]-6-(propylamino)-9-cyclopentylpurine dihydrochloride], the IC50 in experiment [1] (setting [19]) is 0.52 µM; in [1] (setting [20]) it was 0.47 µM; in experiment [2] (setting [21]), 0.8 µM; in experiment [2] (setting [20]), 0.6 µM; in experiment [3] (setting [22]) it was 0.69 µM; in experiment [3] (setting [20]) it was 0.65 µM. Moreover, the IC50 was found to be 0.58 µM in [10] (setting [23]); 0.4 µM in [10] (setting [20]); 0.44 µM in [4] (setting [24]); 0.53 µM in experiment [4] (setting [20]); 0.63 µM in experiment [9] (setting [25]); 0.47 µM in experiment [9] (setting [20]). For the same compound, the IC50 in [5] is 9 nM and 11 nM; in experiment [11] (setting [26]), 0.85 µM; in [6], 250 nM and 370 nM and 160 nM; in [7] (setting [27]) it was 0.5 µM; in experiment [7] (setting [20]), 0.6 µM.

In the case of `N[C@H]1CC[C@H](Nc2nc(NCCc3ccc(O)cc3)c3ncn(C4CCCC4)c3n2)CC1` [Example 55, 2-[Trans-(4-aminocyclohexyl)amino]-6-[(4-hydroxyphenyl)ethylamino]-9-cyclopentylpurine. dihydrochloride], the IC50 in experiment [1] (setting [19]) is 4.2 µM; in [1] (setting [20]), 4 µM; in experiment [2] (setting [21]), 5.2 µM; in [2] (setting [20]), 5.6 µM; in experiment [3] (setting [22]), 7 µM; in [3] (setting [20]), 6.1 µM. In addition, the IC50 in experiment [10] (setting [23]) is 4.3 µM; in [10] (setting [20]) it was 4.2 µM; in experiment [4] (setting [24]), 7 µM; in experiment [4] (setting [20]) it was 4.8 µM; in [9] (setting [25]), 7.3 µM; in experiment [9] (setting [20]) it was 6.4 µM. Besides, the IC50 in [5] is 89 nM; in experiment [11] (setting [26]) it was 6.7 µM; in [11] (setting [20]), 7.2 µM; in [6], 2100 nM and 1100 nM and 700 nM; in experiment [7] (setting [27]), 6.7 µM; in [7] (setting [20]) it was 7.2 µM.
